Source: article PMC10689823, “Discovery of a Drug-like, Natural Product-Inspired DCAF11 Ligand Chemotype” (Nature Communications, 2023)

Molecular target: BRD4S-TagBFP reporter (Homo sapiens, UniProt O60885)
Test: FACS-based CRISPR/Cas9 BRD4 protein stability screen
Protocol: The virus containing supernatant was cleared of cellular debris by filtration through a 0.45-µm PES filter and used to transduce KBM7 BRD4-BFP reporter cells harboring a doxycycline inducible Cas9 allele at a multiplicity of infection (MOI) of 0.05 and 1,000-fold library representation. Library-transduced cells were selected with G418 (1 mg ml^−1, Gibco) for 14 days, expanded and Cas9 expression was induced with DOX (0.4 µg ml^−1, PanReac AppliChem).
Cells were washed with and stored in FACS buffer (PBS containing 5% FBS and 1 mM EDTA) at 4 °C overnight. The next day, cells were strained trough a 35 µm nylon mesh and sorted on a BD FACSAria™ Fusion (BD Biosciences) using a 85 µm nozzle. Aggregates, dead (ZombieNIR positive), Cas9-negative (GFP) and sgRNA library-negative (Thy1.1-APC) cells were excluded, and the remaining cells were sorted based on their BRD4-BFP and mCherry levels into BRD4^HIGH (10% of cells), BRD4^MID (30%) and BRD4^LOW (10%) fractions. For each sample, cells corresponding to at least 2,000-fold library representation were sorted per replicate.
Next-generation sequencing (NGS) libraries of sorted cell fractions were prepared as previously described[25]. In brief, genomic DNA was isolated by cell lysis (10 mM Tris-HCl, 150 mM NaCl, 10 mM EDTA, 0.1% SDS), proteinase K treatment (New England Biolabs) and DNAse-free RNAse digest (Thermo Fisher Scientific), followed by two rounds of phenol extraction and 2-propanol precipitation. Isolated genomic DNA was subjected to several freeze–thaw cycles before nested polymerase chain reaction (PCR) amplification of the sgRNA cassette.
Barcoded NGS libraries for each sorted population were generated using a two-step PCR protocol using AmpliTaq Gold (Invitrogen). The resulting PCR products were purified using Mag-Bind® TotalPure NGS beads (Omega Bio-tek) and amplified in a second PCR introducing the standard Illumina adapters. The final Illumina libraries were bead-purified, pooled and sequenced on a HiSeq 3500 platform (Illumina).
Screen analysis was performed as previously described[25]. Briefly, sequencing reads were quantified using the crispr-process-nf Nextflow workflow, available at https://github.com/ZuberLab/crispr-process-nf/tree/566f6d46bbcc2a3f49f51bbc96b9820f408ec4a3. For statistical analysis, we used the crispr-mageck-nf Nextflow workflow, available at https://github.com/ZuberLab/crispr-mageck-nf/tree/c75a90f670698bfa78bfd8be786d6e5d6d4fc455. To calculate gene-level enrichment, the sorted populations (BRD4^HIGH or BRD4^LOW) were compared to the BRD4^MID populations in MAGeCK (0.5.9)[46], using median normalized read counts.

For Cc1sc2c(c1C)C(c1ccc(Cl)cc1)=NC(CC(=O)NCCOCCOCCOCCOc1c(Br)cc(C=C3C(=O)Nc4ccc(Br)cc43)cc1Br)c1nnc(C)n1-2 (stereo not drawn) [Compound 10], the Low_lfc (Gene FBXL18, Mageck_Gene level) was 0.15, the Low_logP (Gene FBXL18, Mageck_Gene level) was 0.58 and the High_lfc (Gene FBXL19, Mageck_Gene level) was -0.07. It also gave a High_logP (Gene FBXL19, Mageck_Gene level) of 0.17, a Low_lfc (Gene FBXL19, Mageck_Gene level) of 0.26 and a Low_logP (Gene FBXL19, Mageck_Gene level) of 0.97. It also gave a High_lfc (Gene FBXL20, Mageck_Gene level) of 0.09, a High_logP (Gene FBXL20, Mageck_Gene level) of 0.36 and a Low_lfc (Gene FBXL20, Mageck_Gene level) of -0.03. For the same compound, the Low_logP (Gene FBXL20, Mageck_Gene level) was 0.19, the High_lfc (Gene FBXL21, Mageck_Gene level) was 0.06 and the High_logP (Gene FBXL21, Mageck_Gene level) was 0.36. It also gave a Low_lfc (Gene FBXL21, Mageck_Gene level) of -0.13, a Low_logP (Gene FBXL21, Mageck_Gene level) of 0.07 and a High_lfc (Gene FBXL22, Mageck_Gene level) of 0.4. It also gave a Low_lfc (Gene FBXL22, Mageck_Gene level) of 0.39, a Low_logP (Gene FBXL22, Mageck_Gene level) of 1.13 and a High_lfc (Gene FBXO2, Mageck_Gene level) of 0.07. It also gave a High_logP (Gene FBXO2, Mageck_Gene level) of 0.12, a Low_lfc (Gene FBXO2, Mageck_Gene level) of -0.12 and a Low_logP (Gene FBXO2, Mageck_Gene level) of 0.08. For the same compound, the High_lfc (Gene FBXO10, Mageck_Gene level) was 0.07, the High_logP (Gene FBXO10, Mageck_Gene level) was 0.21 and the Low_lfc (Gene FBXO10, Mageck_Gene level) was -0.41. The Low_logP (Gene FBXO10, Mageck_Gene level) was 0.06, the High_lfc (Gene FBXO11, Mageck_Gene level) was -0.62 and the High_logP (Gene FBXO11, Mageck_Gene level) was 0. For the same compound, the Low_lfc (Gene FBXO11, Mageck_Gene level) was 0.03, the Low_logP (Gene FBXO11, Mageck_Gene level) was 0.18 and the High_lfc (Gene FBXO15, Mageck_Gene level) was -0.25. For the same compound, the High_logP (Gene FBXO15, Mageck_Gene level) was 0.04, the Low_lfc (Gene FBXO15, Mageck_Gene level) was -0.28 and the Low_logP (Gene FBXO15, Mageck_Gene level) was 0.22. The High_lfc (Gene FBXO16, Mageck_Gene level) was -0.06, the High_logP (Gene FBXO16, Mageck_Gene level) was 0.3 and the Low_lfc (Gene FBXO16, Mageck_Gene level) was -0.09. It also gave a Low_logP (Gene FBXO16, Mageck_Gene level) of 0.14, a High_lfc (Gene FBXO17, Mageck_Gene level) of -0.2 and a High_logP (Gene FBXO17, Mageck_Gene level) of 0.06. It also gave a Low_lfc (Gene FBXO17, Mageck_Gene level) of 0.03, a Low_logP (Gene FBXO17, Mageck_Gene level) of 0.49 and a High_lfc (Gene FBXO18, Mageck_Gene level) of -0.14. It also gave a High_logP (Gene FBXO18, Mageck_Gene level) of 0.12, a Low_lfc (Gene FBXO18, Mageck_Gene level) of 0.16 and a Low_logP (Gene FBXO18, Mageck_Gene level) of 0.25. For the same compound, the High_lfc (Gene FBXO21, Mageck_Gene level) was 0.22, the High_logP (Gene FBXO21, Mageck_Gene level) was 0.42 and the Low_lfc (Gene FBXO21, Mageck_Gene level) was 0. The Low_logP (Gene FBXO21, Mageck_Gene level) was 0.2, the High_lfc (Gene FBXO22, Mageck_Gene level) was -0.12 and the High_logP (Gene FBXO22, Mageck_Gene level) was 0.02. It also gave a Low_lfc (Gene FBXO22, Mageck_Gene level) of 0.34, a Low_logP (Gene FBXO22, Mageck_Gene level) of 0.76 and a High_lfc (Gene FBXO24, Mageck_Gene level) of -0.07. It also gave a High_logP (Gene FBXO24, Mageck_Gene level) of 0.15, a Low_lfc (Gene FBXO24, Mageck_Gene level) of 0.03 and a Low_logP (Gene FBXO24, Mageck_Gene level) of 0.43. It also gave a High_lfc (Gene FBXO25, Mageck_Gene level) of -0.22, a High_logP (Gene FBXO25, Mageck_Gene level) of 0.18 and a Low_lfc (Gene FBXO25, Mageck_Gene level) of -0.04. For the same compound, the Low_logP (Gene FBXO25, Mageck_Gene level) was 0.27, the High_lfc (Gene FBXO27, Mageck_Gene level) was -0.12 and the High_logP (Gene FBXO27, Mageck_Gene level) was 0.16. For the same compound, the Low_lfc (Gene FBXO27, Mageck_Gene level) was 0.09, the Low_logP (Gene FBXO27, Mageck_Gene level) was 0.72 and the High_lfc (Gene FBXO28, Mageck_Gene level) was 0.16. It also gave a High_logP (Gene FBXO28, Mageck_Gene level) of 0.49, a Low_lfc (Gene FBXO28, Mageck_Gene level) of -0.29 and a Low_logP (Gene FBXO28, Mageck_Gene level) of 0.02. For the same compound, the High_lfc (Gene FBXO30, Mageck_Gene level) was -0.1, the High_logP (Gene FBXO30, Mageck_Gene level) was 0.16 and the Low_lfc (Gene FBXO30, Mageck_Gene level) was 0.12. The Low_logP (Gene FBXO30, Mageck_Gene level) was 0.1, the High_lfc (Gene FBXO31, Mageck_Gene level) was 0.04 and the High_logP (Gene FBXO31, Mageck_Gene level) was 0.36. For the same compound, the Low_lfc (Gene FBXO31, Mageck_Gene level) was -0.01, the Low_logP (Gene FBXO31, Mageck_Gene level) was 0.26 and the High_lfc (Gene FBXO32, Mageck_Gene level) was 0.06. It also gave a High_logP (Gene FBXO32, Mageck_Gene level) of 0.08, a Low_lfc (Gene FBXO32, Mageck_Gene level) of 0.38 and a Low_logP (Gene FBXO32, Mageck_Gene level) of 0.68. The High_lfc (Gene FBXO33, Mageck_Gene level) was -0.54, the High_logP (Gene FBXO33, Mageck_Gene level) was 0 and the Low_lfc (Gene FBXO33, Mageck_Gene level) was -0.07. For the same compound, the Low_logP (Gene FBXO33, Mageck_Gene level) was 0.18, the High_lfc (Gene FBXO34, Mageck_Gene level) was 0.15 and the High_logP (Gene FBXO34, Mageck_Gene level) was 0.29. The Low_lfc (Gene FBXO34, Mageck_Gene level) was -0.13, the Low_logP (Gene FBXO34, Mageck_Gene level) was 0.33 and the High_lfc (Gene FBXO36, Mageck_Gene level) was -0.26. For the same compound, the High_logP (Gene FBXO36, Mageck_Gene level) was 0.21, the Low_lfc (Gene FBXO36, Mageck_Gene level) was 0.2 and the Low_logP (Gene FBXO36, Mageck_Gene level) was 0.47. For the same compound, the High_lfc (Gene FBXO38, Mageck_Gene level) was -0.33, the High_logP (Gene FBXO38, Mageck_Gene level) was 0.02 and the Low_lfc (Gene FBXO38, Mageck_Gene level) was 0.01. The Low_logP (Gene FBXO38, Mageck_Gene level) was 0.38, the High_lfc (Gene FBXO39, Mageck_Gene level) was 0.06 and the High_logP (Gene FBXO39, Mageck_Gene level) was 0.22. For the same compound, the Low_lfc (Gene FBXO39, Mageck_Gene level) was 0.01, the Low_logP (Gene FBXO39, Mageck_Gene level) was 0.18 and the “CRL substrate receptor scoring as top hit (gene required for BRD4 degradation)” value (KBM7 BRD4-BFP reporter cells, 9 0.5 µM, 10 1 µM, dBET6 10 nM, 6 hours) was “DCAF11”. For the same compound, the High_lfc (gene FBXO3) was 0.34, the High_logP (gene FBXO3) was 0.33 and the Low_lfc (gene FBXO3) was -0.08. For the same compound, the Low_logP (gene FBXO3) was 0.04, the High_lfc (gene FBXO4) was 0.05 and the High_logP (gene FBXO4) was 0.31. It also gave a Low_lfc (gene FBXO4) of -0.07, a Low_logP (gene FBXO4) of 0.01 and a High_lfc (gene FBXO5) of 0.23. The High_logP (gene FBXO5) was 0.83, the Low_lfc (gene FBXO5) was -0.27 and the Low_logP (gene FBXO5) was 0.05. The High_lfc (gene FBXO6) was -0.06, the High_logP (gene FBXO6) was 0.34 and the Low_lfc (gene FBXO6) was -0.26. The Low_logP (gene FBXO6) was 0.15, the High_lfc (gene FBXO7) was -0.21 and the High_logP (gene FBXO7) was 0. For the same compound, the Low_lfc (gene FBXO7) was -0.1, the Low_logP (gene FBXO7) was 0.14 and the High_lfc (gene FBXO8) was -0.41. For the same compound, the High_logP (gene FBXO8) was 0.01, the Low_lfc (gene FBXO8) was -0.3 and the Low_logP (gene FBXO8) was 0.02. It also gave a High_lfc (gene FBXO9) of -0.11, a High_logP (gene FBXO9) of 0.02 and a Low_lfc (gene FBXO9) of -0.13. The Low_logP (gene FBXO9) was 0.09, the High_lfc (gene FBXO40) was -0.14 and the High_logP (gene FBXO40) was 0.09. It also gave a Low_lfc (gene FBXO40) of -0.23, a Low_logP (gene FBXO40) of 0.3 and a High_lfc (gene FBXO41) of 0.03. For the same compound, the High_logP (gene FBXO41) was 0.17, the Low_lfc (gene FBXO41) was -0.11 and the Low_logP (gene FBXO41) was 0.05. For the same compound, the High_lfc (gene FBXO42) was 0.02, the High_logP (gene FBXO42) was 0.05 and the Low_lfc (gene FBXO42) was 0.34. The Low_logP (gene FBXO42) was 1.46, the High_lfc (gene FBXO43) was -0.17 and the High_logP (gene FBXO43) was 0.11. The Low_lfc (gene FBXO43) was -0.15, the Low_logP (gene FBXO43) was 0.08 and the High_lfc (gene FBXO44) was -0.16. The High_logP (gene FBXO44) was 0.39, the Low_lfc (gene FBXO44) was -0.37 and the Low_logP (gene FBXO44) was 0.19. For the same compound, the High_lfc (gene FBXO45) was -0.07, the High_logP (gene FBXO45) was 0.11 and the Low_lfc (gene FBXO45) was -0.31. The Low_logP (gene FBXO45) was 0.11, the High_lfc (gene FBXO46) was -0.12 and the High_logP (gene FBXO46) was 0.12. For the same compound, the Low_lfc (gene FBXO46) was 0.18, the Low_logP (gene FBXO46) was 0.84 and the High_lfc (gene FBXO47) was 0.35. The High_logP (gene FBXO47) was 0.59, the Low_lfc (gene FBXO47) was 0.65 and the Low_logP (gene FBXO47) was 1.14. For the same compound, the High_lfc (gene FBXO48) was -0.14, the High_logP (gene FBXO48) was 0.09 and the Low_lfc (gene FBXO48) was -0.68. It also gave a Low_logP (gene FBXO48) of 0.01, a High_lfc (gene FBXW2) of -0.16 and a High_logP (gene FBXW2) of 0.05. It also gave a Low_lfc (gene FBXW2) of -0.15, a Low_logP (gene FBXW2) of 0.23 and a High_lfc (gene FBXW4) of -0.23. It also gave a High_logP (gene FBXW4) of 0.02, a Low_lfc (gene FBXW4) of 0.1 and a Low_logP (gene FBXW4) of 0.3. It also gave a High_lfc (gene FBXW5) of -0.14, a High_logP (gene FBXW5) of 0.29 and a Low_lfc (gene FBXW5) of 0.04. The Low_logP (gene FBXW5) was 0.25, the High_lfc (gene FBXW7) was 0.42 and the High_logP (gene FBXW7) was 1.76. The Low_lfc (gene FBXW7) was 0.03, the Low_logP (gene FBXW7) was 0.22 and the High_lfc (gene FBXW8) was -0.01. It also gave a High_logP (gene FBXW8) of 0.23, a Low_lfc (gene FBXW8) of 0.37 and a Low_logP (gene FBXW8) of 0.66. For the same compound, the High_logP (gene FBXW9) was 0.71, the Low_logP (gene FBXW9) was 1.01 and the High_lfc (gene FBXW10) was -0.01. It also gave a High_logP (gene FBXW10) of 0.15, a Low_lfc (gene FBXW10) of -0.13 and a Low_logP (gene FBXW10) of 0.01. It also gave a High_lfc (gene FBXW11) of -0.15, a High_logP (gene FBXW11) of 0.05 and a Low_lfc (gene FBXW11) of -0.16. For the same compound, the Low_logP (gene FBXW11) was 0.14, the High_lfc (gene FBXW12) was -0.01 and the High_logP (gene FBXW12) was 0.11. For the same compound, the Low_lfc (gene FBXW12) was 0.06, the Low_logP (gene FBXW12) was 0.36 and the High_logP (gene FEM1A) was 0.33.
